# Measured values from US7803815B2, “Indol-3-yl-corbonyl-piperidin-benzoimidazol derivatives” (Hoffmann-La Roche Inc., priority 2005, dated 2010).
# Biological target: T1, human V1a receptor (Homo sapiens, UniProt P37288)
# T1 construct: expressed in transfected cells; host or cells: HEK293 cells, transiently transfected; membrane preparation
# Assay: human V1a receptor binding, 3H-Vasopressin SPA on membranes of transfected HEK293 cells
# Details: displacement of 4 nM 3H-Vasopressin; HEK293 cell membranes; 1 h at room temperature; Ki from IC50 by the Cheng-Prussoff equation
# Procedure: The human V1a receptor was cloned by RT-PCR from total human liver RNA. The coding sequence was subcloned in an expression vector after sequencing to confirm the identity of the amplified sequence. […] Cell membranes were prepared from HEK293 cells transiently transfected with the expression vector and grown in 20 liter fermenters with the following protocol.
# 50 g of cells are resuspended in 30 ml freshly prepared ice cold Lysis buffer (50 mM HEPES, 1 mM EDTA, 10 mM MgCl2 adjusted to pH=7.4+ complete cocktail of protease inhibitor (Roche Diagnostics)). Homogenized with Polytron for 1 min and sonicated on ice for 2×2 minutes at 80% intensity (Vibracell sonicator). The preparation is centrifuged 20 min at 500 g at 4° C., the pellet is discarded, and the supernatant centrifuged 1 hour at 43,000 g at 4° C. (19,000 rpm). The pellet is resuspended in 12.5 ml Lysis buffer+12.5 ml Sucrose 20% and homogenized using a Polytron for 1-2 min. The protein concentration is determined by the Bradford method, and aliquots are stored at −80° C. until use. For binding studies 60 mg Yttrium silicate SPA beads (Amersham) are mixed with an aliquot of membrane in binding buffer (50 mM Tris, 120 mM NaCl, 5 mM, KCl, 2 mM CaCl2, 10 mM MgCl2) for 15 minutes with mixing. 50 ul of bead/membrane mixture is then added to each well of a 96 well plate, followed by 50 ul of 4 nM 3H-Vasopressin (American Radiolabeled Chemicals). For total binding measurement, 100 ul of binding buffer are added to the respective wells, for non-specific binding 100 ul of […] cold vasopressin and for compound testing 100 ul of a serial dilution of each compound in 2% DMSO. The plate is incubated 1 h at room temperature, centrifuged 1 min at 1000 g and counted on a Packard Top-Count. Non-specific binding counts are subtracted from each well, and data is normalized to the maximum specific binding set at 100%. To calculate an IC 50, the curve is fitted using a non-linear regression model (XLfit), and the Ki is calculated using the Cheng-Prussoff equation.
# T1 sequence (P37288 whole entry): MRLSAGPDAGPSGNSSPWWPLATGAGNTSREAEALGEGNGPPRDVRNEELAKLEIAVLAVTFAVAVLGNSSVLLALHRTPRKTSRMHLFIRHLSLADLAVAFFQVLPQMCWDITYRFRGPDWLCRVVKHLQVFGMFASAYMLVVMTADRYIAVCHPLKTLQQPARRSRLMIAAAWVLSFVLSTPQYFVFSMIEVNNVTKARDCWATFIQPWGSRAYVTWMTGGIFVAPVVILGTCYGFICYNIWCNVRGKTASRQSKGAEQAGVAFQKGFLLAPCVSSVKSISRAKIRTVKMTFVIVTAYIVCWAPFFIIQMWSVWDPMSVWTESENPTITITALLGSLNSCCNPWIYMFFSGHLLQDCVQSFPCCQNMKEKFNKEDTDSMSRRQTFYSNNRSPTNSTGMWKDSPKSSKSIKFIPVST
row,Compound,Ki [µM]
1,"O=C(c1cn(Cc2cccc(F)c2)c2cc(Cl)ccc12)N1CCC(n2c(=O)[nH]c3ccccc32)CC1 [Example 34, 1-{1-[6-Chloro-1-(3-fluoro-benzyl)-1H-indole-3-carbonyl]-piperidin-4-yl}-1,3-dihydro-benzoimidazol-2-one]",0.009
2,"O=C(Cn1cc(C(=O)N2CCC(n3c(=O)[nH]c4ccccc43)CC2)c2ccc(Cl)cc21)c1cc(F)ccc1F [Example 35, 1-(1-{6-Chloro-1-[2-(2,5-difluoro-phenyl)-2-oxo-ethyl]-1H-indole-3-carbonyl}-piperidin-4-yl)-1,3-dihydro-benzoimidazol-2-one]",0.005
3,"O=C(Cn1cc(C(=O)N2CCC(n3c(=O)[nH]c4ccccc43)CC2)c2ccc(Cl)cc21)c1ccc(F)cc1F [Example 36, 1-(1-{6-Chloro-1-[2-(2,4-difluoro-phenyl)-2-oxo-ethyl]-1H-indole-3-carbonyl}-piperidin-4-yl)-1,3-dihydro-benzoimidazol-2-one]",0.006
4,"O=C(c1cn(C(=O)c2cc(F)cc(F)c2)c2cc(Cl)ccc12)N1CCC(n2c(=O)[nH]c3ccccc32)CC1 [Example 37, 1-{1-[6-Chloro-1-(3,5-difluoro-benzoyl)-1H-indole-3-carbonyl]-piperidin-4-yl}-1,3-dihydro-benzoimidazol-2-one]",0.015
5,"O=C(Cn1cc(C(=O)N2CCC(n3c(=O)[nH]c4ccccc43)CC2)c2ccc(Cl)cc21)c1ccccc1F [Example 38, 1-(1-{6-Chloro-1-[2-(2-fluoro-phenyl)-2-oxo-ethyl]-1H-indole-3-carbonyl}-piperidin-4-yl)-1,3-dihydro-benzoimidazol-2-one]",0.002
6,"O=C(Cn1cc(C(=O)N2CCC(n3c(=O)[nH]c4ccccc43)CC2)c2ccc(Cl)cc21)c1ccc(F)c(F)c1 [Example 39, 1-(1-{6-Chloro-1-[2-(3,4-difluoro-phenyl)-2-oxo-ethyl]-1H-indole-3-carbonyl}-piperidin-4-yl)-1,3-dihydro-benzoimidazol-2-one]",0.018
7,"O=C(c1cn(-c2cc(F)cc(F)c2)c2cc(Cl)ccc12)N1CCC(n2c(=O)[nH]c3ccccc32)CC1 [Example 40, 1-{1-[6-Chloro-1-(3,5-difluoro-phenyl)-1H-indole-3-carbonyl]-piperidin-4-yl}-1,3-dihydro-benzoimidazol-2-one]",0.013
8,"O=C(c1cn(C(=O)N2CCCCC2)c2cc(Cl)ccc12)N1CCC(n2c(=O)[nH]c3ccccc32)CC1 [Example 41, 1-{1-[6-Chloro-1-(piperidine-1-carbonyl)-1H-indole-3-carbonyl]-piperidin-4-yl}-1,3-dihydro-benzoimidazol-2-one]",0.014
9,"O=C(Cn1cc(C(=O)N2CCC(n3c(=O)n(CC(=O)N4CCCCC4)c4ccccc43)CC2)c2ccc(Cl)cc21)N1CCCCC1 [Example 42, 1-{1-[6-Chloro-1-(2-oxo-2-piperidin-1-yl-ethyl)-1H-indole-3-carbonyl]-piperidin-4-yl}-3-(2-oxo-2-piperidin-1-yl-ethyl)-1,3-dihydro-benzoimidazol-2-one]",0.018
10,"CCN(CC)C(=O)Cn1cc(C(=O)N2CCC(n3c(=O)n(CC(=O)N(CC)CC)c4ccccc43)CC2)c2ccc(Cl)cc21 [Example 43, 2-{6-Chloro-3-[4-(3-diethylcarbamoylmethyl-2-oxo-2,3-dihydro-benzoimidazol-1-yl)-piperidine-1-carbonyl]-indol-1-yl}-N,N-diethyl-acetamide]",0.062
11,"O=C(Cn1cc(C(=O)N2CCC(n3c(=O)[nH]c4ccccc43)CC2)c2ccc(Cl)cc21)c1cc(F)cc(F)c1 [Example 44, 1-(1-{6-Chloro-1-[2-(3,5-difluoro-phenyl)-2-oxo-ethyl]-1H-indole-3-carbonyl}-piperidin-4-yl)-1,3-dihydro-benzoimidazol-2-one]",0.017
12,"Cc1oc(-c2ccccc2)nc1C(=O)Cn1cc(C(=O)N2CCC(n3c(=O)[nH]c4ccccc43)CC2)c2ccc(Cl)cc21 [Example 45, 1-(1-{6-Chloro-1-[2-(5-methyl-2-phenyl-oxazol-4-yl)-2-oxo-ethyl]-1H-indole-3-carbonyl}-piperidin-4-yl)-1,3-dihydro-benzoimidazol-2-one]",0.043
13,"CN(C)C(=O)Cn1cc(C(=O)N2CCC(n3c(=O)[nH]c4ccccc43)CC2)c2ccc(Cl)cc21 [Example 46, 2-{6-Chloro-3-[4-(2-oxo-2,3-dihydro-benzoimidazol-1-yl)-piperidine-1-carbonyl]-indol-1-yl}-N,N-dimethyl-acetamide]",0.002
14,"Cc1cc2c(C(=O)N3CCC(n4c(=O)[nH]c5ccccc54)CC3)cn(CC(=O)N(C)C)c2cc1Cl [Example 47, 2-{6-Chloro-5-methyl-3-[4-(2-oxo-2,3-dihydro-benzoimidazol-1-yl)-piperidine-1-carbonyl]-indol-1-yl}-N,N-dimethyl-acetamide]",0.005
15,"CN(C)C(=O)Cn1cc(C(=O)N2CCC(n3c(=O)[nH]c4ccccc43)CC2)c2cc(Cl)c(Cl)cc21 [Example 48, 2-{5,6-Dichloro-3-[4-(2-oxo-2,3-dihydro-benzoimidazol-1-yl)-piperidine-1-carbonyl]-indol-1-yl}-N,N-dimethyl-acetamide]",0.003
